| Compound | melting point [°C] |
| --- | --- |
| Oc1ccc(N2CCN(c3nccs3)CC2)cc1 | 170 |
| CCCCCCCCCCCCCCC(=O)C(=O)N[C@@H](CCCC)C(=O)NCC(=O)OC | 65 to 67 |
| CC(C)(S)[C@@H](NC(=O)c1ccc(Br)cc1)C(=O)O | 176 |
| C=CCNc1nc(C)c(C(=O)c2ccc(N)c([N+](=O)[O-])c2)s1 | 250 to 252 |
| CC1NC(=O)NN=C1c1ccc(OCC(=O)NCCN2CCN(C(=O)c3ccc(Cl)cc3)CC2)c(Cl)c1 (stereo not given) | 186 to 188 |
| Oc1cc2ccccc2c(Br)c1O | 98 to 102 |
| CN1C(C)(C)CC(CNc2nc(NO)nc(NCC3CC(C)(C)N(C)C(C)(C)C3)n2)CC1(C)C | 157 to 160 |
| O=S(=O)(O)CCCNc1cccc(O)c1 | > 250 |
| CCn1c(C)nc2cc(C(F)(F)F)c(Cl)c(NC)c21 | 116 to 119 |
| CN1CCC(C(C(=O)N2CCCC2)(c2ccccc2)c2ccccc2)C1 (stereo not given) | 137 to 140 |
| Cc1n[nH]c(C)c1Oc1cc(Cl)cc(Cl)c1 | 85 to 87 |
| CC(=O)OCCn1nc(-c2cc(C(C)(C)C)c(O)c(C(C)(C)C)c2)c2c(C)cc(C)nc21 | 110 to 111 |
| CCN(CC)CCCOc1cccc(-c2oc3ccccc3c2C(=O)c2cc(C)cc(C)c2)c1 | 114 to 121 |
| CCc1nnc2n1N=C1c3cc(OC)c(OC)cc3CC1S2 (stereo not given) | 212 |
| CC(C)c1cccc(C(C)C)c1N1C(=O)c2ccccc2C1=O | 172 |
| Cc1cc(=O)c(-c2ccc(Cl)c(Cl)c2)c(-c2ccc(S(N)(=O)=O)cc2)o1 | 128 |
| CCC1N=C(c2ccccc2Cl)c2cc(CC(=O)OC)sc2NC1=S (stereo not given) | 199 to 200 |
| CC(C)CCS(=O)c1cccc(-c2nc(=O)c3ccccc3s2)n1 (stereo not given) | 59.5 to 61 |
| CCOC(=O)c1ccc(-c2nc(COc3ccc(COc4nn(-c5ccccc5)cc4/C=C/P(=O)(OCC)OCC)cc3OC)c(C)o2)o1 | 129 to 130 |
| Nc1ccccc1NC(=O)Nc1ccc(-c2ccc(C(=O)N3CCN4CCC3CC4)o2)cc1 | 174 |
| COc1cc(OCC2CC2)c(/C=C/C(=O)c2ccc(C(=O)O)cc2)cc1-c1cccs1 | 187 to 191 |
| COCOCc1oc2c(OC)cccc2c1CCSC(c1ccccc1)c1ccccc1 | 110 |
| Cc1ccc(-n2nc3c(cc2=O)CCCc2sc(C=O)cc2-3)cc1 | 127 to 129 |
| Cc1cc(SCc2cc(-c3ccc(C(F)(F)F)cc3)on2)c(Cl)cc1OCC(=O)O | 120 to 121 |
| COc1nc(N)nc2c1ncn2C1O[C@H](CO)C[C@@]1(C)O (stereo not given in full) | 140 to 142 |

| Compound | melting point [°C] |
| --- | --- |
| COc1ccccc1OCCOS(C)(=O)=O | 73 to 76 |
| O=C1OC(COc2ccccc2)CN1CCCOc1ccc(CC2SC(=O)N(C(c3ccccc3)(c3ccccc3)c3ccccc3)C2=O)cc1 (stereo not given) | 70 to 73 |
| O=C(COc1cc(C(=O)O)c(O)c2ccccc12)Nc1ccccc1 | 165 to 166 |
| Cc1nnc(-c2ccc3occ(-c4ccc(C(=O)N5CCCC5)c(F)c4)c3c2)o1 | 195 to 196 |
| CCCCCCCCCCCCOc1cc(CC#N)c(SC)cc1CC#N | 100 to 102 |
| CC1(COC(=O)N2CC=C(c3ccc(C(F)(F)F)cc3)CC2)Cn2cc([N+](=O)[O-])nc2O1 (stereo not given) | 113 to 115 |
| Cc1nc(C(O)C2CCc3c(C)c4ccccc4n3C2=O)c[nH]1 (stereo not given) | 210 to 211 |
| O=c1c2ccccc2oc2cc(OCC(O)CCl)cc(O)c12 (stereo not given) | 144 |
| O=C(NCCc1ncc(Cl)cc1Cl)c1ccccc1C(F)(F)F | 118 |
| CS(=O)(=O)c1ccc(-c2cccn2-c2ccc(F)cc2)cc1 | 145 to 147 |
| CCOC(=O)c1ncc2[nH]c3cccc(Oc4ncccn4)c3c2c1COC | 96 to 98 |
| CN(C)Cc1ccc(/C=C/C(=O)O)cn1 | 144 |
| CCOC(=O)C1CC(=O)C(N=Nc2ccc(Br)cc2)=C(O)C1 (stereo not given) | 169 to 171 |
| O=C(O)C(Oc1ccccc1)C(=O)NCC1CCN(c2ccncc2)CC1 (stereo not given) | 84 to 86 |
| CN(c1ccc(O)cc1)c1cc2ccc(Cl)cc2cn1 | 140 |
| CN1CCN(C2CCN(c3ncc4ncnc(Nc5ccc(F)c(Cl)c5)c4n3)CC2)CC1 | 163 to 165 |
| Cc1cc(F)ccc1NC(=O)OC(C)(C)C | 93 to 95 |
| Cc1ccc(C(=O)Cn2c(=O)sc3ccccc32)cc1 | 168 to 170 |
| CC(C)(N)c1ccc(-c2nc(Nc3cccc(C(F)(F)F)c3)ncc2C#N)cc1 | 192 |
| OCC(OC1CCCCO1)c1ccc2sccc2c1 (single isomer, unassigned; (-)) | 62 to 77 |
| Cc1ccc(-c2c(N)ncnc2Cl)cc1 | 168 to 171 |
| COC(=O)c1ccc(Cl)cc1NC(=O)CSc1ccccc1C(=O)O | 207 to 209 |
| Cc1cccc(-c2[nH]c(C(C)C)nc2-c2ccc(F)c(-c3ccc(C(=O)NN4CCOCC4)cc3)c2)n1 | 153 to 155 |
| c1ccc(CNc2ccncc2)cc1 | 108 to 110 |
| CCOC(=O)c1cc(O)ccc1CCc1cc2cc(C#N)ccc2o1 | 133 to 135 |

| Compound | melting point [°C] |
| --- | --- |
| CC(C)n1nc(-c2c(-c3ccccc3)nn3ccc(OCCC4CCCC4)cc23)ccc1=O | 160 |
| Cc1cc(Oc2c(Cl)cc(C(F)(F)F)cc2Cl)nn1C(=O)NOC(C)(C)C | 92 to 94 |
| CC(=O)NCC1CN(c2ccc(N3CCN(c4nc5ccc([N+](=O)[O-])cc5s4)CC3)c(F)c2)C(=O)O1 (stereo not given) | 216 to 217 |
| COc1cc2c(cc1Nc1ncc(Cl)c(Nc3ccccc3OC)n1)CCN(C(=O)CN(C)C)CC2 | 76 to 99 |
| CC(C)(C)OC(=O)NC(C(=O)O)c1ccccc1O (stereo not given) | 125 |
| O=C1CC(CO)C(c2c(Cl)cccc2Cl)N1Cc1ccccc1 (stereo not given) | 122 to 126 |
| O=C1NC(=O)C(CC#Cc2ccc(Cl)cc2)(Sc2nc3cc(Cl)ccc3s2)S1 (stereo not given) | 187 to 188 |
| Cc1ccc(Cn2nc(C(=O)O)cc2-c2ccc(Cl)c(C)c2)cc1 | 180 |
| CSC(Oc1cc(C)c(Br)c(C)c1)C(=O)NC(C)(C)C (stereo not given) | 123 to 125 |
| COCc1nc2c(OC)ccc(C(O)(Cc3ccncc3)Cc3ccncc3)c2[nH]1 | 210 |
| CS(=O)(=O)c1nc2ccccn2c1S(N)(=O)=O | 214 to 216 |
| CCOc1cc(Cc2cnc(N)nc2N)cc2c1OC(C)(C)C=C2CC(C)C | 188 |
| CCn1cc(C(=O)O)c(=O)c2cc(F)c(N3CCN(C)C(c4ccco4)C3)cc21 (stereo not given) | 209 to 212 |
| CCn1c(=O)c2c(nc(C=Cc3cccc(OC)c3O)n2C)n(CC)c1=O | 225 to 226 |
| Cc1cn(C)c(CO)n1 | 125 to 126 |
| c1ccc(-c2ncn(C3CCCCO3)c2-c2ccccc2)cc1 (stereo not given) | 104 to 105 |
| CC(=O)Nc1ccc(Cc2nc3cc(CC4SC(=O)NC4=O)ccc3o2)cc1 (stereo not given) | 233 to 236 |
| COc1ccc2c(c1)CCC1C2CCC2(C)C(O)CC(C)(C)C12 (stereo not given) | 87 to 91 |
| C#CCN(C(C)=O)c1cccc(-c2ccc3nnc(C)n3n2)c1 | 195 to 198 |
| FC(F)(F)c1ccc(Cl)cc1CN1CCNc2ncc(I)cc21 | 189 to 191 |
| CCc1c2n(c3ccccc13)C(=O)C(Cc1nc[nH]c1C)CC2 (stereo not given) | 222 to 224 |
| COc1ccc2c(c1)Sc1cc(OC)ccc1N2C | 166 to 167 |
| C[C@H](CO)Cn1c2ccccc2c2ccccc21 | 80 to 81 |
| FC(F)(F)c1cccc(-c2ncn(CC3CC3)c2-c2ccncc2)c1 | 106 |
| COc1ccc(CCN)cc1OCCC(c1ccccc1)(c1ccccc1)c1ccccc1 | 111 to 112 |

| Compound | melting point [°C] |
| --- | --- |
| CC(C(=O)c1c(O)c2cccnc2n(-c2cccc(OC(F)(F)F)c2)c1=O)c1ccccc1 (stereo not given) | 136 to 138 |
| O=c1c(Cl)c(SCc2ccc(Cl)cc2)cnn1-c1ccccc1 | 154 to 155 |
| CC(C)(C)C(=O)C(Cl)C(=O)Nc1cc(OC(=O)c2cc(C(C)(C)C)c(O)c(C(C)(C)C)c2)ccc1Cl (stereo not given) | 185 to 187 |
| CN1CCN(c2cc3c(Cl)cccc3c(=O)[nH]2)CC1CO (stereo not given) | 212 to 214 |
| O=C(CCCCCl)c1cc2c(c([N+](=O)[O-])c1)OCC2 | 91 to 92 |
| CCCCCCNc1ncnc2c1ncn2C1CC(F)C(CO)O1 (stereo not given) | 83 |
| O=C(COc1ccc(Cl)cc1Cl)OCNC(=O)Oc1cccc(Cl)c1 | 110 |
| CC1(C)C(C(=O)OCC(Cl)(Cl)Cl)N2C(=O)C(NC(=O)Cc3ccccc3)C2S1=O (stereo not given) | 166 to 168 |
| O=C(O)c1nn(-c2ccc(Cl)cc2Cl)c(-c2ccc(Cl)cc2)c1CF | 60 to 80 |
| CNC(=O)c1c(-c2ccccc2)noc1CC(O)c1ccc(C)cc1 (stereo not given) | 148 to 150 |
| NCC(CC(=O)O)C1CCCC1 (stereo not given) | 178 to 180 |
| CC(=O)OCC(=O)Nc1cc(-c2ccncc2)c[nH]c1=O | 267 to 290 |
| CNc1nnnn1-c1ccccc1C(=O)O | 152 to 154 |
| COc1ccc(-c2c(C(C)=O)c(Cn3cncn3)nc3cc(OC)c(OC)cc23)cc1OC | 180 to 181 |
| CC1=C(C(N)=O)C(c2cccc([N+](=O)[O-])c2)n2ccnc2N1 (stereo not given) | 238 to 240 |
| CCCCCCCCCCCCCCCCCCC(NC(C)=O)(C(=O)OCC)C(=O)OCC | 70 to 71 |
| CCn1ncc2cc3c(nc21)C(Cl)c1ccccc1CC3 (stereo not given) | 107 to 110 |
| CC1=C(C(=O)CCl)C2(C)CCC3C(CC=C4CC(O)CCC43C)C2C1 (stereo not given) | 170 to 172 |
| COc1ccc2c(-c3ccc(C#Cc4ccccc4)cc3)cc(=O)oc2c1 | 178 to 180 |
| Cc1ccccc1C=C(C(=O)O)C(=O)O | 197 to 200 |
| Nc1ccc(OCc2ccccc2)cc1N | 184 |
| CC1(C)CC(O)CC(C)(C)N1OCc1ccccc1 | 86 to 87 |
| CCCCN1N=C(c2ccc3c(c2)C(C)(C)CC(=O)N3C)C(C)CC1=O (stereo not given) | 137 to 139 |
| O=S(=O)(Nc1cccc(OCc2ccc3ccccc3n2)c1)c1ccc(Cl)cc1 | 157 to 159 |
| Cc1cc(-c2cn(-c3cccc(OCCCl)c3)c3ncnc(N)c23)cc(C)c1OCc1ccccc1 | 188 to 190 |
